Data reported in ChEMBL document CHEMBL1909511, “Inhalation by design: novel tertiary amine muscarinic M₃ receptor antagonists with slow off-rate binding kinetics for inhaled once-daily treatment of chronic obstructive pulmonary disease” (J Med Chem, 2011).

Legend:
[1] = molecular target: T1, Muscarinic acetylcholine receptor M3 (Homo sapiens, UniProt P20309); assay: Displacement of [3H]-NMS from human recombinant M3 receptor expressed in CHO cells after 24 hrs by filter binding assay; assay type: cell-based
Target sequence in this assay (P20309 whole entry): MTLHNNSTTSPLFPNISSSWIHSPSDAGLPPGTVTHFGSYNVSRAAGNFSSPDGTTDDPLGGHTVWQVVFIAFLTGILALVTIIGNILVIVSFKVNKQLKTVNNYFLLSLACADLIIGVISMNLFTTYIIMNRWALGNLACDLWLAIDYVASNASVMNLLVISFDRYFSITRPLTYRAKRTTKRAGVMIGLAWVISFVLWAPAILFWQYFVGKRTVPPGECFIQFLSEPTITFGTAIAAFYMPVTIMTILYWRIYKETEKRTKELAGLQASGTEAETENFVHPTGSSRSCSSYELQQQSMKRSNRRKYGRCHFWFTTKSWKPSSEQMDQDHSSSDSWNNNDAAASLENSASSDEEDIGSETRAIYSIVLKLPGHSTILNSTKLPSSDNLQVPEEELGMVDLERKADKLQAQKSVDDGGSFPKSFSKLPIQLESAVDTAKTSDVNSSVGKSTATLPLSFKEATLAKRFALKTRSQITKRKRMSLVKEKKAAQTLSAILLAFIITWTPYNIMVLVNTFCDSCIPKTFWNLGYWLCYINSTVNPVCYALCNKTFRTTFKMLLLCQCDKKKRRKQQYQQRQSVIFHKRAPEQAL

[2] = Intrinsic clearance in human liver microsomes assessed per mg of protein in presence of NADPH
[3] = molecular target: Muscarinic acetylcholine receptor M3 (Cavia porcellus, UniProt Q8VH26); assay: Antagonist activity at M3 receptor in Dunkin-Hartley guinea pig tracheal strips assessed as inhibition of electrically field-stimulated contractile response after 8 hrs; assay type: functional
Sequence of Muscarinic acetylcholine receptor M3 (Cavia porcellus, UniProt Q8VH26) (Q8VH26 whole entry): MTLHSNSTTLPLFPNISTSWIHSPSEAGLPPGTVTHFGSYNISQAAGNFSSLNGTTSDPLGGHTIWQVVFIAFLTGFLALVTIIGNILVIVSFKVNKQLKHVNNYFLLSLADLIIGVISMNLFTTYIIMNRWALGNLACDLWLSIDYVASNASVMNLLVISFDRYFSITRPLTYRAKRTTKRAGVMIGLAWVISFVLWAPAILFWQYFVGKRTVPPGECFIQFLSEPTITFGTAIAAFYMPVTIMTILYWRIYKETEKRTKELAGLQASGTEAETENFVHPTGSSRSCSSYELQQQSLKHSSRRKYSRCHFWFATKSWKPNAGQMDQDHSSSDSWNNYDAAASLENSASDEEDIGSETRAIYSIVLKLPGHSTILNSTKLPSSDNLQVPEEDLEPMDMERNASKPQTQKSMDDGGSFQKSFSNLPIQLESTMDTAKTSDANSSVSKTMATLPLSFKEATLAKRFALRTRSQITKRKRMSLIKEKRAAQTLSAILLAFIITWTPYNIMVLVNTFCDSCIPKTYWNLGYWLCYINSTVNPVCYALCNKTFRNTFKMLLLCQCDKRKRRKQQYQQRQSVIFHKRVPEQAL

[4] = test system: Cavia porcellus; assay: Bronchodilator activity in Dunkin-Hartley guinea pig assessed as inhibition of […] lung resistance after cumulative intratracheal administration in micelle solution at hourly intervals challenged each time 1 hr later with methacholine; assay type: functional, organism-based
[5] = molecular target: T2, Muscarinic acetylcholine receptor M4 (Homo sapiens) (UniProt P08173); assay: Displacement of [3H]-NMS from human recombinant M4 receptor expressed in CHO cells assessed as dissociation half life at 100 fold human M4 receptor binding Ki concentration after 24 hrs by dilution-offset filter binding assay; assay type: cell-based
T2 sequence (whole entry): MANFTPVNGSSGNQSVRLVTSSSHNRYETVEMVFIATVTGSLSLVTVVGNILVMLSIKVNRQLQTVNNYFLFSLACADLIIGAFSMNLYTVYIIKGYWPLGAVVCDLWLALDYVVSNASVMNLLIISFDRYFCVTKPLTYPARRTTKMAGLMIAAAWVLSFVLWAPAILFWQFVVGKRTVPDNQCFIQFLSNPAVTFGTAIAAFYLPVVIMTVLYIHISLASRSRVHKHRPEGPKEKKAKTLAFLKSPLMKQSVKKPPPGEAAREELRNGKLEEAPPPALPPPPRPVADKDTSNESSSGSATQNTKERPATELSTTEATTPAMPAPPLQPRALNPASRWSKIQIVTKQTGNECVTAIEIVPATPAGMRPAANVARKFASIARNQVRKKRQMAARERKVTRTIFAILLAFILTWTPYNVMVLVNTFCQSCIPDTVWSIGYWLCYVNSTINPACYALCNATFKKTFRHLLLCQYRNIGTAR

[6] = molecular target: T3, Muscarinic acetylcholine receptor M5 (Homo sapiens, UniProt P08912); assay: Displacement of [3H]-NMS from human recombinant M5 receptor expressed in CHO cells after 24 hrs by filter binding assay; assay type: cell-based
T3 sequence (P08912 whole entry): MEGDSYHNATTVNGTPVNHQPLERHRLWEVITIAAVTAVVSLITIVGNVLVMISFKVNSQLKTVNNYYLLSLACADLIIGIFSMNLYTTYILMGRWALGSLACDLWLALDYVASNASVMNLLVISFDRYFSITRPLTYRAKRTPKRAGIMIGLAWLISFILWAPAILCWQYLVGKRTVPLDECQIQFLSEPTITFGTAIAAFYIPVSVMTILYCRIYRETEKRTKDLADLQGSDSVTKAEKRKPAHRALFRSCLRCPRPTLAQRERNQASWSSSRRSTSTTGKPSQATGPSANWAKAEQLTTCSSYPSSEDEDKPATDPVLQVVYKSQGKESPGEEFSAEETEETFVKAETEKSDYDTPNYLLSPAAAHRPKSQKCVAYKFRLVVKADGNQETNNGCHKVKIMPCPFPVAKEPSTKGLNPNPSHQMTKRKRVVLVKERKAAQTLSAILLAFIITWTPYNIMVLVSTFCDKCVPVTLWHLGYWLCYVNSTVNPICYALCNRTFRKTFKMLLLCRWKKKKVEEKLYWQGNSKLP

[7] = molecular target: T4, Muscarinic acetylcholine receptor M5 (Homo sapiens) (UniProt P08912); assay: Displacement of [3H]-NMS from human recombinant M5 receptor expressed in CHO cells assessed as dissociation half life at 100 fold human M5 receptor binding Ki concentration after 24 hrs by dilution-offset filter binding assay; assay type: cell-based
T4 sequence (whole entry): T3 sequence (P08912 whole entry)

[8] = test system: Canis familiaris; assay: Bronchodilator activity in methacholine challenged Beagle dog assessed as intrinsic duration of action at 3 ug intratracheally administered as single dose in micelle solution; assay type: functional, Canis lupus familiaris
[9] = test system: Canis familiaris; assay: Bronchodilator activity in methacholine challenged Beagle dog assessed as intrinsic duration of action at 10 ug intratracheally administered as single dose in micelle solution; assay type: functional, Canis lupus familiaris
[10] = test system: MDR1; assay: Apparent permeability across apical to basal side in dog MDCK expressing MDR1; assay type: ADME, cell-based, Canis lupus familiaris
[11] = molecular target: T1, Muscarinic acetylcholine receptor M3; details: CHO
Target sequence in this assay (P20309 whole entry, looked up): as the sequence (P20309 whole entry) above

[12] = molecular target: T1, Muscarinic acetylcholine receptor M3; details: CHO; remark: listed apart in the source
Target sequence in this assay (P20309 whole entry, looked up): as the sequence (P20309 whole entry) above

[13] = molecular target: T1, Muscarinic acetylcholine receptor M3
Target sequence in this assay (P20309 whole entry, looked up): as the sequence (P20309 whole entry) above

[14] = molecular target: T1, Muscarinic acetylcholine receptor M3; remark: listed apart in the source
Target sequence in this assay (P20309 whole entry, looked up): as the sequence (P20309 whole entry) above
Description: Displacement of radioligand from M3 receptor assessed as dissociation half life

- Ki [1]: 0.128 nM
- microsomal CLint [2]: > 282 µL/min/mg
- IC50 [3]: 1.53 nM
- T1/2 [5]: 9.78 h
- Ki [6]: 0.169 nM
- T1/2 [7]: > 16.7 h
- Papp A→B [10]: 7 ×10⁻⁶ cm/s
- T1/2 [11]: > 24 h
- T1/2 [12]: > 24 h
- pKb [13]: 9.6
- T1/2 [14]: 83.3 h
SMILES: CC(C)(CCC(C(N)=O)(c1ccccc1)c1ccccc1)N1CC(Oc2cccc(O)c2)C1 [PF-03635659]
- ED50 [4]: 3 µg
- Time [8]: >24 h
- Time [9]: 32 h
